pIC50: −log10 of the molar value.

One series concerns the target T1, CYP1A2 (Homo sapiens, UniProt P05177).
T1 sequence (P05177 whole entry): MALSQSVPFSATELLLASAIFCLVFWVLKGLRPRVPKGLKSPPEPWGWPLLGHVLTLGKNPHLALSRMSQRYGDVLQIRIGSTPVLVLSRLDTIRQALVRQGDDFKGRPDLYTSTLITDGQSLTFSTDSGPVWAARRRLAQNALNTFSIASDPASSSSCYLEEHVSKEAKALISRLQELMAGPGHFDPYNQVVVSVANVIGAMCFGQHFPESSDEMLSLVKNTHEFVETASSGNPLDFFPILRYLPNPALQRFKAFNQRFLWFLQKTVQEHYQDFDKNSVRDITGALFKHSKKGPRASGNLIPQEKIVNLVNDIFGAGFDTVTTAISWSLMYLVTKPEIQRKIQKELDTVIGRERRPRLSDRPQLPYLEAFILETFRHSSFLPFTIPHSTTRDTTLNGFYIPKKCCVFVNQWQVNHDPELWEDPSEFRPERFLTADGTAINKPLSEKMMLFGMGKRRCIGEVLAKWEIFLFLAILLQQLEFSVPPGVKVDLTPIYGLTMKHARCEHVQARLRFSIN
Briefly: Inhibition of CYP1A2 in human liver microsomes assessed as reduction in phenacetin O-deethylase activity at 10 uM preincubated for 5 mins followed by NADPH addition and measured after 15 mins by LC-MS/MS analysis relative to control. It is filed as ADME. The conditions noted are these: probe phenacetin (O-deethylation).

The target in another series is CYP2C9 (Homo sapiens, UniProt P11712). Put plainly: Inhibition of CYP2C9 in human liver microsomes assessed as reduction in tolbutamide 4-hydroxylase activity at 10 uM preincubated for 5 mins followed by NADPH addition and measured after 15 mins by LC-MS/MS analysis relative to control. The format is ADME. As to conditions: probe tolbutamide (4-hydroxylation).
The next series addresses CYP2C19 (Homo sapiens, UniProt P33261). Briefly: Inhibition of CYP2C19 in human liver microsomes assessed as reduction in S-mephenytoin 4-hydroxylase activity at 10 uM preincubated for 5 mins followed by NADPH addition and measured after 15 mins by LC-MS/MS analysis relative to control. It is filed as ADME. As to conditions: probe S-mephenytoin (4-hydroxylation).
A further series deals with CYP2D6 (Homo sapiens, UniProt P10635). Briefly: Inhibition of CYP2D6 in human liver microsomes assessed as reduction in dextromethorphan O-demethylase activity at 10 uM preincubated for 5 mins followed by NADPH addition and measured after 15 mins by LC-MS/MS analysis relative to control. It is filed as ADME. As to conditions: probe dextromethorphan (O-demethylation).
Another series addresses CYP3A4 (Homo sapiens, UniProt P08684). Briefly: Inhibition of CYP3A4 in human liver microsomes assessed as reduction in midazolam 1-hydroxylase activity at 10 uM preincubated for 5 mins followed by NADPH addition and measured after 15 mins by LC-MS/MS analysis relative to control. As to conditions: probe midazolam (1-hydroxylation). It is filed as ADME.
Series [1] is described as follows: Metabolic stability in human liver microsomes assessed as compound remaining at 1 uM after 30 mins in presence of NADPH regeneration system by LC-MS/MS analysis. The format is ADME, Microsome. The conditions noted are these: read-out: Stability.
Series [2] is described as follows: Metabolic stability in dog liver microsomes assessed as compound remaining at 1 uM after 30 mins in presence of NADPH regeneration system by LC-MS/MS analysis. The conditions noted are these: read-out: Stability. It is filed as ADME, Canis lupus familiaris, Microsome.
Series [3] in a line: Metabolic stability in rat liver microsomes assessed as compound remaining at 1 uM after 30 mins in presence of NADPH regeneration system by LC-MS/MS analysis. It is filed as ADME, Microsome. As to conditions: read-out: Stability.
Series [4] is described as follows: Metabolic stability in mouse liver microsomes assessed as compound remaining at 1 uM after 30 mins in presence of NADPH regeneration system by LC-MS/MS analysis. The format is ADME, Microsome. The conditions noted are these: read-out: Stability.
Series [5] in a line: Effective permeability of the compound at 10 uM after 5 hrs by PAMPA. It is filed as ADME. The conditions noted are these: read-out: Peff.
A short description of series [6]: AUC in Sprague-Dawley rat at 9 to 10 mg/kg, po via gavage by LC-MS/MS analysis. The format is ADME, organism-based. The conditions noted are these: in vivo.
Series [7] is described as follows: AUC (0 to infinity) in Sprague-Dawley rat at 1 mg/kg, iv by LC-MS/MS analysis. It is filed as ADME, organism-based. The conditions noted are these: in vivo. Details: dose 1 mg/kg, time infinity, route intravenous.
Series [8] is described as follows: AUC (0 to infinity) in Sprague-Dawley rat at 9 to 10 mg/kg, po via gavage by LC-MS/MS analysis. It is filed as ADME, organism-based. The conditions noted are these: in vivo.
Series [9] is described as follows: Oral bioavailability in Sprague-Dawley rat at 9 to 10 mg/kg via gavage by LC-MS/MS analysis. As to conditions: in vivo. The format is ADME, organism-based.
Series [10] can be described thus: Cmax in Sprague-Dawley rat at 9 to 10 mg/kg, po via gavage by LC-MS/MS analysis. It is filed as ADME, organism-based. As to conditions: in vivo.
Series [11] in a line: Tmax in Sprague-Dawley rat at 9 to 10 mg/kg, po via gavage by LC-MS/MS analysis. The format is ADME, organism-based. The conditions noted are these: in vivo.
Series [12] is described as follows: Terminal half life in Sprague-Dawley rat at 1 mg/kg, iv by LC-MS/MS analysis. The format is ADME, organism-based. As to conditions: in vivo, read-out: beta t1/2 (converted).
For series [13], the target named is T2, Estrogen-related receptor gamma (Homo sapiens, UniProt P62508).
T2 sequence (P62508 whole entry): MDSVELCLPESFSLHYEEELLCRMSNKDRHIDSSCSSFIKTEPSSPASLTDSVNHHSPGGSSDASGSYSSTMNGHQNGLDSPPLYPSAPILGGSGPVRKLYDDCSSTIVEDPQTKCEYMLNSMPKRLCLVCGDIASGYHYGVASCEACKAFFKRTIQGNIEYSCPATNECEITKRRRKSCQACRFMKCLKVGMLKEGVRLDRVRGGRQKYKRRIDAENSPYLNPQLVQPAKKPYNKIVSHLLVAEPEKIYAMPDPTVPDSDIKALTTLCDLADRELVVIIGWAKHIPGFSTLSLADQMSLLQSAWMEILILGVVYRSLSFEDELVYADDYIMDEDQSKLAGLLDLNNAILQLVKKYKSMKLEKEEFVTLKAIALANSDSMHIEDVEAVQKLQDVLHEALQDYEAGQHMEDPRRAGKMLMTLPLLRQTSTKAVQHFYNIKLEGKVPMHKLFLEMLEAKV

For series [14], the target named is T3, Steroid hormone receptor ERR1 (Homo sapiens, UniProt P11474).
T3 sequence (P11474 whole entry): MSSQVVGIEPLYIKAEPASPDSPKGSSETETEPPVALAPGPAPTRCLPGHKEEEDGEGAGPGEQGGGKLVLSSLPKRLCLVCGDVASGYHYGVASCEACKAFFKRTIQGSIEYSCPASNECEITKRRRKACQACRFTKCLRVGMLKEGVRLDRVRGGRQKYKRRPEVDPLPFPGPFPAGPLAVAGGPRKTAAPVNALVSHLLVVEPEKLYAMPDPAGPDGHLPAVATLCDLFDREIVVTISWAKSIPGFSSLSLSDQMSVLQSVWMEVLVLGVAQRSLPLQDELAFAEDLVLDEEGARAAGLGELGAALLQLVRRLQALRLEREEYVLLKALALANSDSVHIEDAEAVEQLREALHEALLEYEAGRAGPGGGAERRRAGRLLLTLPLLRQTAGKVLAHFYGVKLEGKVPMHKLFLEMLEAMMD

The target in the next series is T4, Estrogen receptor (Homo sapiens, UniProt P03372).
T4 sequence (P03372 whole entry): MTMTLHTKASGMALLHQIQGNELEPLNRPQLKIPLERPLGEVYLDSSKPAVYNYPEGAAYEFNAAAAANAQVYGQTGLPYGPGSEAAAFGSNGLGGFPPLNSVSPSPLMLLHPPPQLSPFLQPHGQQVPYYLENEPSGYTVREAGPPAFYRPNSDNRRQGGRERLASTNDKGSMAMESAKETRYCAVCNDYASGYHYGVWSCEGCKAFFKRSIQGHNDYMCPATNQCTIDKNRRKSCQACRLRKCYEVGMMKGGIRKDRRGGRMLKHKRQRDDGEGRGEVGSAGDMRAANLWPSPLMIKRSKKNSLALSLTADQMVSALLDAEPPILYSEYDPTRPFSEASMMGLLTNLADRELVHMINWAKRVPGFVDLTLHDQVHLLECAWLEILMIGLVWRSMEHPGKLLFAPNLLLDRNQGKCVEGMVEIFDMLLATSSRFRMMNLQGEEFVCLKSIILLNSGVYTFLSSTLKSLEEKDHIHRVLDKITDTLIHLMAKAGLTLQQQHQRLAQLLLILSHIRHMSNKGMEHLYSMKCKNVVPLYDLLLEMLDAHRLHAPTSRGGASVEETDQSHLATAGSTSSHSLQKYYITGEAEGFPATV

Series [15] concerns the target T2, Estrogen-related receptor gamma. This is another data set of the same source.
Description: Inverse agonist activity at CMX-gal4-fused ERRgamma (unknown origin) transfected in human AD293 cells co-expressing CMV-beta galactosidase assessed as effect on beta-galactosidase activity after 24 hrs by luciferase reporter gene assay
A short description of series [16]: in vivo. The conditions noted are these: Sprague-Dawley, rat, iv, 1 mg/kg.
Series [17] can be described thus: in vivo. As to conditions: Sprague-Dawley, rat, plasma, iv, 1 mg/kg.
A short description of series [18]: in vivo. As to conditions: Sprague-Dawley, rat, iv, 1 mg/kg. This is another data set of the same source.
Description: Volume of distribution at steady state in Sprague-Dawley rat at 1 mg/kg, iv by LC-MS/MS analysis

CYP2C9, sequence (P11712 whole entry): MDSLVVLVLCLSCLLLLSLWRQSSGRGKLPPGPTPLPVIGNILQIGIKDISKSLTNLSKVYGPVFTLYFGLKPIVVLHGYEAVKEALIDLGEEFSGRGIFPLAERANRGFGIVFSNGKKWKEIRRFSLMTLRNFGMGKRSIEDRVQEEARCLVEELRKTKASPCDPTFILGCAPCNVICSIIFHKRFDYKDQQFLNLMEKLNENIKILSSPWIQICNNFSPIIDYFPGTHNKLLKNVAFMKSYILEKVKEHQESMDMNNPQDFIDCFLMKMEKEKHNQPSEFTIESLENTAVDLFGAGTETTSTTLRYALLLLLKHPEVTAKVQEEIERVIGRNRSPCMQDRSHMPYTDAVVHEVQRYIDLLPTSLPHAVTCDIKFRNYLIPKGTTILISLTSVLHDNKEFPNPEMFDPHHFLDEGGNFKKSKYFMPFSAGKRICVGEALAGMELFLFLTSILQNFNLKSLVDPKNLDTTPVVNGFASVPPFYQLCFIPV
CYP2D6, sequence (P10635 whole entry): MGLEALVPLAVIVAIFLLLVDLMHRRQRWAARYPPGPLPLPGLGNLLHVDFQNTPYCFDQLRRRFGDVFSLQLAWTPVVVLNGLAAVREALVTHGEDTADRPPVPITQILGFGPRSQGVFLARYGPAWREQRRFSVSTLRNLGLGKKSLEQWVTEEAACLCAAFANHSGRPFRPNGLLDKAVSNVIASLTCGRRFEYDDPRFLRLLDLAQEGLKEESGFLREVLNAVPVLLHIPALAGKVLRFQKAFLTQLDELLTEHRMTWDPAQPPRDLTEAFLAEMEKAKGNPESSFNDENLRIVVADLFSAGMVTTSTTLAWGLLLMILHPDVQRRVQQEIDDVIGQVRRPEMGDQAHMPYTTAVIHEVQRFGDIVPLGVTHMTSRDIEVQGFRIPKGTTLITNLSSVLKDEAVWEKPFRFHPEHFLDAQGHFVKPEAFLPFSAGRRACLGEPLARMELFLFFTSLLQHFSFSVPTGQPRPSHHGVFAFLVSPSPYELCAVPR
CYP2C19, sequence (P33261 whole entry): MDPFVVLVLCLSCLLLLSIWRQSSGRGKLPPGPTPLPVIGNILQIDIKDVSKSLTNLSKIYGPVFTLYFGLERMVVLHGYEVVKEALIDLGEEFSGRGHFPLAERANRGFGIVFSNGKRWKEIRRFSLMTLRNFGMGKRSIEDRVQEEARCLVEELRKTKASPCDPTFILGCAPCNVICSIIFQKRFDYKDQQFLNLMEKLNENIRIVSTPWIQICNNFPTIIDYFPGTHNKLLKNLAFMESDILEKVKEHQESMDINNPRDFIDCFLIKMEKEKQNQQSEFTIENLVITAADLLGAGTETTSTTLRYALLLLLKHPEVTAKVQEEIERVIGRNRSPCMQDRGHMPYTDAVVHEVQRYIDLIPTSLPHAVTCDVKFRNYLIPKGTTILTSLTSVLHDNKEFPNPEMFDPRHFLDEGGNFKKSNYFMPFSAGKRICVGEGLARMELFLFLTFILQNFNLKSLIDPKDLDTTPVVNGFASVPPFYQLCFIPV
CYP3A4, sequence (P08684 whole entry): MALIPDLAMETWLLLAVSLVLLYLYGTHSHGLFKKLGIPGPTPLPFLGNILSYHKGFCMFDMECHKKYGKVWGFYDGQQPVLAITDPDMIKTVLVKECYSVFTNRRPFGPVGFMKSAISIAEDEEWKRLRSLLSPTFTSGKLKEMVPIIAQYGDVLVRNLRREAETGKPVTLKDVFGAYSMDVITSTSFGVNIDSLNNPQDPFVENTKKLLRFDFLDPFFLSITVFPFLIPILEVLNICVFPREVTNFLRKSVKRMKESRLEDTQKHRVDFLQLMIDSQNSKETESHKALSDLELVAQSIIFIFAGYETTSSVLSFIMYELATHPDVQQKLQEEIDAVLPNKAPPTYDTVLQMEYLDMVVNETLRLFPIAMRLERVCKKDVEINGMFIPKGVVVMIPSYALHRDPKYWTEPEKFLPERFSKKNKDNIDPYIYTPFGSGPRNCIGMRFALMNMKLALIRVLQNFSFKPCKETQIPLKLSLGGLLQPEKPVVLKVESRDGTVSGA

Regarding `CCN1CCN(c2ccc(/C(=C(/CCCO)c3ccccc3)c3ccc(C)cc3)cc2)CC1.Cl.Cl`, the inhibition at 0.25 h, 10 µM amounted to 0% at CYP1A2; 13% on CYP2C9; 26% at CYP2C19; 13.4% at CYP2D6; 22.4% on CYP3A4. In addition, the remaining at 0.5 h, 1 µM worked out at 67.9% in [1], 58% in [2], 62.8% in series [3] and 54.9% in [4]. Moreover, the Papp at 5 h, 10 µM in series [5] came out at 4.47 ×10⁻⁶ cm/s. Besides, the AUC in [6] turned out to be 1.07 µM·h; in the series “in vivo [16]”, 0.55 µM·h. In addition, the AUC(0-inf) in series [7] is 0.6 µM·h; in series [8], 1.61 µM·h. Besides, the bioavailability in series [9] was 19.6%. In series [10], this molecule gave a Cmax of 210 nM. In addition, the Tmax in series [11] was 3 h. The half-life in series [12] is 3.2 h. Moreover, the pIC50 in series [13] was 7.60; in series [14] it was < 5.00; on Estrogen receptor, < 5.00; in series [15], 7.74. Further, the clearance in “in vivo [17]” turned out to be 59 mL/min/kg. In addition, the Vd in the series “in vivo [18]” was 9.8 L/kg.

The values above are taken from ChEMBL document CHEMBL4411321, “Discovery of Potent, Selective, and Orally Bioavailable Estrogen-Related Receptor-γ Inverse Agonists To Restore the Sodium Iodide Symporter Function in Anaplastic Thyroid Cancer” (J Med Chem, 2019).
